Paper PMC8469912, “Naproxen Based 1,3,4-Oxadiazole Derivatives as EGFR Inhibitors: Design, Synthesis, Anticancer, and Computational Studies” (Pharmaceuticals, 2021)
In brackets after ≈: the same amount, converted by molar mass.

Legend:
[1] = system: MCF-7 (breast cells); assay: Antiproliferative activity, sulphorhodamine B (SRB) assay, MCF-7; type: cell-based; details: Homo sapiens, MCF7, cytotoxicity, MCF-7 breast cancer cells, mean of three independent experiments
Procedure: (§1) The cytotoxicity of the new isolated compounds was evaluated against MCF-7 (breast cells), HepG2 (Hepatocellular) and HCT-116 (colorectal cells) human cancer cells using sulphorhodamine B assay (SRB). This assay was performed as previously published.
(§2) The antiproliferative activity of the target compounds was assessed on three cancer lines, MCF-7, HepG2 and HCT-116 cells using sulforhodamine assay. […].

[2] = system: HepG2 (Hepatocellular); assay: Antiproliferative activity, sulphorhodamine B (SRB) assay, HepG2; type: cell-based; details: Homo sapiens, HepG2, cytotoxicity, HepG2 liver cancer cells, mean of three independent experiments
Procedure: as §1, §2

[3] = system: HCT-116 (colorectal cells); assay: Antiproliferative activity, sulphorhodamine B (SRB) assay, HCT-116; type: cell-based; details: Homo sapiens, HCT-116, cytotoxicity, HCT-116 colorectal cancer cells, mean of three independent experiments
Procedure: as §1, §2

[4] = target: EGFR (Homo sapiens, UniProt P00533); assay: In vitro EGFR kinase inhibitory activity (ELISA, EGFR Erb B1 kinase kit)
Procedure: Briefly, solutions of kinase/peptide and ATP were prepared prior to use. […] Then, 5 mL of this prepared solution was added into 96 well plates, incubated for 1 h and determined by an ELISA Reader (Perkin Elmer, Waltham, MA, USA). Each experiment was repeated three times and IC50 represented as mean ± S.E, was calculated using Graph Pad Prism 5.

[5] = system: MCF-7; assay: Apoptosis, acridine orange/ethidium bromide staining, MCF-7; type: cell-based, human; details: MCF-7, AO/EtBr dual staining, 48 h, fluorescent microscope
Procedure: (§3) AO and EtBr are DNA binding dyes. They have been used for detection of the morphological features of apoptotic and necrotic cells. The stainings were performed according the protocol as previously published.
(§4) The MCF-7, HepG2 and HCT 116 cancer cells were categorized by AO/EtBr dual staining. The different colors of the cells indicate different stages of apoptosis. […] and examined under a fluorescent microscope. Regularly stained green with normal, round, intact nuclei and cytoplasm indicates the viability of the normal cell (control).

[6] = system: HepG2; assay: Apoptosis, acridine orange/ethidium bromide staining, HepG2; type: cell-based, human; details: HepG2, AO/EtBr dual staining, 48 h, fluorescent microscope
Procedure: as §3, §4

[7] = system: HCT 116; assay: Apoptosis, acridine orange/ethidium bromide staining, HCT 116; type: cell-based, human; details: HCT 116, AO/EtBr dual staining, 48 h, fluorescent microscope
Procedure: as §3, §4

Sequence of EGFR (P00533 25-1210): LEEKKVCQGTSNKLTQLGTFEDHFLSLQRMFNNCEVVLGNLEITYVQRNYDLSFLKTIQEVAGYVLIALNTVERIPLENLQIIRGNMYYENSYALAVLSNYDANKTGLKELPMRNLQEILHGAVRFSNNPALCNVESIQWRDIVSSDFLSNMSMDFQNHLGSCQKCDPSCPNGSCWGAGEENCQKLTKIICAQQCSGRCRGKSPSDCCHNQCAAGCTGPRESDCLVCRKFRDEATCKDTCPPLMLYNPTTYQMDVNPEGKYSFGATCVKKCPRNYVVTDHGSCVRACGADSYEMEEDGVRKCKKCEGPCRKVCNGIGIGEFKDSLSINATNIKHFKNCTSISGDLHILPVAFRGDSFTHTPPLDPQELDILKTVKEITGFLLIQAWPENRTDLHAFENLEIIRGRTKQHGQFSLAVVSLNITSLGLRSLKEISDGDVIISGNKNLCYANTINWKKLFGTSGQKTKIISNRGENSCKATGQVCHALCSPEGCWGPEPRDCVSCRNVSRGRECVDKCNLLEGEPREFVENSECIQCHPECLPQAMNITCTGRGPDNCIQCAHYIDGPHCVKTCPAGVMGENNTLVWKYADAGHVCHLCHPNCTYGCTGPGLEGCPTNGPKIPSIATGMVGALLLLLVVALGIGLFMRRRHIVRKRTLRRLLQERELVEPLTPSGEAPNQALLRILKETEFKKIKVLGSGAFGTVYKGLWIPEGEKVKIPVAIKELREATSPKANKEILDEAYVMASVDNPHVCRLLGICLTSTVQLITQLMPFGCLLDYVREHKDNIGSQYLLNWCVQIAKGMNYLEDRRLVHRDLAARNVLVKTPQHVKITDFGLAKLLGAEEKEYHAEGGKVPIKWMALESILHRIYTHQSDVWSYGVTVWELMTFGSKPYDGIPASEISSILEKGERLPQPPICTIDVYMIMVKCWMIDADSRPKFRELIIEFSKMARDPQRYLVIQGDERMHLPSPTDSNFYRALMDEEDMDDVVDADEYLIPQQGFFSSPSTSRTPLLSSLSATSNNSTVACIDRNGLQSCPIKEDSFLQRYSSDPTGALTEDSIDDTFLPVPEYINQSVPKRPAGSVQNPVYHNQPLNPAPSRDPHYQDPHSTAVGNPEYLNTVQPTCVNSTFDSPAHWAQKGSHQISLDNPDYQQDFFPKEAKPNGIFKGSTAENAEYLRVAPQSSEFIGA

| melting point | IC50 [4] | SMILES | IC50 [1] | IC50 [2] | IC50 [3] | also measured |
| --- | --- | --- | --- | --- | --- | --- |
| 99 to 100 °C | 7310 ± 250 nM | COc1ccc2cc([C@H](C)c3nnc(SCc4cn(-c5ccc(F)cc5)nn4)o3)ccc2c1 [Compound 8] | 7.38 µg/mL (≈ 16 µM) | 25.5 µg/mL (≈ 55.2 µM) | 15.7 µg/mL (≈ 33.9 µM) | – |
| – | 710 ± 170 nM | COc1ccc2cc([C@H](C)c3nnc(SCc4cn(-c5ccc(F)cc5F)nn4)o3)ccc2c1 [Compound 9] | 6.47 µg/mL (≈ 13.5 µM) | 4.52 µg/mL (≈ 9.43 µM) | 7.46 µg/mL (≈ 15.6 µM) | Early apoptosis (cell death) [5]: significant rate of cell death in early apoptosis; Necrosis [5]: does not cause death of the necrosis pathway; Early apoptosis (cell death) [6]: significant rate of cell death in early apoptosis; Necrosis [6]: does not cause death of the necrosis pathway; Early apoptosis (cell death) [7]: significant rate of cell death in early apoptosis; Necrosis [7]: does not cause death of the necrosis pathway |
| – | 670 ± 330 nM | COc1ccc2cc([C@H](C)c3nnc(SCc4cn(-c5ccccc5Cl)nn4)o3)ccc2c1 [Compound 10] | 5.05 µg/mL (≈ 10.6 µM) | 3.53 µg/mL (≈ 7.39 µM) | 33.9 µg/mL (≈ 70.9 µM) | Early apoptosis (cell death) [5]: significant rate of cell death in early apoptosis; Early apoptosis (cell death) [6]: significant rate of cell death in early apoptosis; Early apoptosis (cell death) [7]: significant rate of cell death in early apoptosis |
| – | – | COc1ccc2cc([C@H](C)c3nnc(SCc4cn(-c5cccc(Cl)c5)nn4)o3)ccc2c1 [Compound 11] | 60.5 µg/mL (≈ 126 µM) | 37.9 µg/mL (≈ 79.3 µM) | 83.9 µg/mL (≈ 176 µM) | – |
| 102 to 103 °C | – | COc1ccc2cc([C@H](C)c3nnc(SCc4cn(-c5ccc(Cl)cc5Cl)nn4)o3)ccc2c1 [Compound 12] | 45.7 µg/mL (≈ 89.2 µM) | 26.4 µg/mL (≈ 51.5 µM) | 28.1 µg/mL (≈ 54.9 µM) | – |
| – | 3420 ± 110 nM | COc1ccc2cc([C@H](C)c3nnc(SCc4cn(-c5cccc(Br)c5)nn4)o3)ccc2c1 [Compound 13] | 15.8 µg/mL (≈ 30.3 µM) | 7.07 µg/mL (≈ 13.5 µM) | 29.3 µg/mL (≈ 56 µM) | – |
| 160 to 161 °C | 5120 ± 210 nM | COc1ccc2cc([C@H](C)c3nnc(SCc4cn(-c5ccc(Br)cc5)nn4)o3)ccc2c1 [Compound 14] | 7.5 µg/mL (≈ 14.4 µM) | 7.63 µg/mL (≈ 14.6 µM) | 86.1 µg/mL (≈ 165 µM) | – |
| – | 410 ± 120 nM | COc1ccc2cc([C@H](C)c3nnc(SCc4cn(-c5ccccc5O)nn4)o3)ccc2c1 [Compound 15, 2-(4-((5-((S)-1-(2-methoxynaphthalen-6-yl)ethyl)-1,3,4-oxadiazol-2-ylthio)methyl)-1H-1,2,3-triazol-1-yl)phenol] | 2.13 µg/mL (≈ 4.64 µM) | 1.63 µg/mL (≈ 3.55 µM) | 29.1 µg/mL (≈ 63.3 µM) | Early apoptosis (cell death) [6]: percentage of cell death decreased; Early apoptosis (cell death) [7]: percentage of cell death decreased; Late apoptosis [7]: induces more late apoptosis; Necrosis [7]: high percentage of necrosis |
| – | 2270 ± 170 nM | COc1ccc2cc([C@H](C)c3nnc(SCc4cn(-c5cccc(C(=O)O)c5)nn4)o3)ccc2c1 [Compound 16] | 10.4 µg/mL (≈ 21.4 µM) | 10.7 µg/mL (≈ 21.9 µM) | 8.36 µg/mL (≈ 17.1 µM) | Late apoptosis [5]: observed at a high rate; Necrosis [5]: high percentage of necrosis; Late apoptosis [6]: observed at a high rate; Necrosis [6]: high percentage of necrosis |
| 220 to 221 °C | – | COc1ccc2cc([C@H](C)c3nnc(SCC(=O)Nc4ccc(F)cc4)o3)ccc2c1 [Compound 19] | – | – | – | – |
| 102 to 103 °C | – | COc1ccc2cc([C@H](C)c3nnc(SCC(=O)Nc4ccc(F)cc4F)o3)ccc2c1 [Compound 20] | 32.6 µg/mL (≈ 71.7 µM) | 31.3 µg/mL (≈ 68.8 µM) | 73.4 µg/mL (≈ 161 µM) | – |
| – | 820 ± 280 nM | COc1ccc2cc([C@H](C)c3nnc(SCC(=O)Nc4cccc(Cl)c4)o3)ccc2c1 [Compound 21] | 25.9 µg/mL (≈ 57.1 µM) | 7 µg/mL (≈ 15.4 µM) | 1.24 µg/mL (≈ 2.73 µM) | – |
| 129 to 130 °C | – | COc1ccc2cc([C@H](C)c3nnc(SCC(=O)Nc4cccc(Br)c4)o3)ccc2c1 [Compound 22] | > 100 µg/mL | > 100 µg/mL | – | – |
| 148 to 149 °C | – | COc1ccc2cc([C@H](C)c3nnc(SCC(=O)Nc4ccc(Br)cc4)o3)ccc2c1 [Compound 23] | 25.6 µg/mL (≈ 51.3 µM) | 15 µg/mL (≈ 30 µM) | 35.1 µg/mL (≈ 70.5 µM) | – |
| – | 1080 ± 310 nM | COc1ccc2cc([C@H](C)c3nnc(SCC(=O)Nc4ccccc4C)o3)ccc2c1 [Compound 24] | 8.15 µg/mL (≈ 18.8 µM) | 4.88 µg/mL (≈ 11.3 µM) | 29.3 µg/mL (≈ 67.7 µM) | – |
| 130 to 131 °C | – | COc1ccc2cc([C@H](C)c3nnc(SCC(=O)Nc4ccccc4C(=O)O)o3)ccc2c1 [Compound 25] | 29.8 µg/mL (≈ 64.3 µM) | 28 µg/mL (≈ 60.5 µM) | 29.2 µg/mL (≈ 63 µM) | – |
| – | – | COc1ccc2cc([C@H](C)c3nnc(SCC(=O)N4CCOCC4)o3)ccc2c1 [Compound 26] | 22.3 µg/mL (≈ 53.9 µM) | 23.6 µg/mL (≈ 57.2 µM) | 11.1 µg/mL (≈ 26.8 µM) | – |
| – | – | COc1cccc2c1C(=O)c1c(O)c3c(c(O)c1C2=O)C[C@@](O)(C(=O)CO)C[C@@H]3O[C@H]1C[C@H](N)[C@H](O)[C@H](C)O1 [Doxorubicin, reference compound] | 1.41 µg/mL (≈ 2.59 µM) | 1.62 µg/mL (≈ 2.98 µM) | 2.11 µg/mL (≈ 3.88 µM) | – |
